Measured values from US20200407674A1, “CELL HOLDING AND TRANSPORTING DEVICE” (Stem Cell & Device Laboratory, Inc., priority 2018, published 2020).

Test system: human iPS cell-derived cardiac myocytes
Test: Extracellular potential of cultured cardiac myocytes measured with MEA probe using device 1700
Format: cell-based
Details: dofetilide 0.0003, 0.001, 0.003 μM vs DMSO alone; MEA probe (MED64 System); FIG. 23
Description: The method of using the device for retaining and transporting cells 1700 when measuring cell characteristics is described here by taking an example of measuring an extracellular potential generated by cell activity of cardiac myocytes that is formed in the device for retaining and transporting cells 1700. An MEA (Multi-Electrode Array) probe P is used for measuring the extracellular potential. The MEA probe P is a device for measuring the extracellular potential generated by cellular activity. […] The substrate PB has a thin plate shape, and the molten wall PW is formed on the substrate PB. The melted wall PW has a cylindrical shape with one end open, and stores a medium inside, forming a cell arrangement space PS for placing the cells to be tested. […] The extracellular potential of the cultured cardiac myocytes was measured using the device 1700 that is formed using polycarbonate and that has a base 1701 (diameter: 6 mm, thickness: 0.7 mm), a through hole 1703 (diameter: 1.5 mm), a cell culture holding part 105 made of an oriented fiber sheet with a pitch of 10 μm, a manipulating part 1707, and the air vent section 1711, and the MEA probe P (MED64 System, Alpha MED Scientific Inc.). […] The drug response of the cultured cardiac myocytes can be measured by means of the extracellular potential by changing the conditions of the drug to be administered to the cultured cardiac myocytes. […]

Structure (SMILES): CN(CCOc1ccc(NS(C)(=O)=O)cc1)CCc1ccc(NS(C)(=O)=O)cc1 [dofetilide, Dofetilide]
- time required from the first peak potential to the second peak potential: prolonged depending on the concentration
